According to publication PMC9604255, “Discovery of Simple Diacylhydrazine-Functionalized Cinnamic Acid Derivatives as Potential Microtubule Stabilizers” (International Journal of Molecular Sciences, 2022):
Like-named read-outs stand apart in the source and are kept apart here.

How the values were obtained:
[1] = system: A549 cancer cells; assay: MTT antiproliferative assay, A549; format: cell-based, human; conditions: MTT assay after 48 h
Excerpt: (§1) An A549 (human non-small cell lung cancer cell line) cell line was purchased from the Shanghai Cell Bank of the Chinese Academy of Sciences; PC-3 (human prostate cancer cell line) cell line was donated by the Key Laboratory of Natural Product Chemistry of the Chinese Academy of Sciences of Guizhou Province; HepG2 (human liver cancer cell line) and NRK 52E (normal rat kidney cell line) cell line was donated by Guizhou Medical University; all cell lines were kept by the laboratory.
(§2) The antiproliferative activity of target compounds against A549, PC-3, HepG2, and NRK-52E were determined by MTT assay, as described in previous articles. The assay was recorded at 490 nm by an Infinite® M200 PRO multimode microplate (Tecan, Männedorf, Switzerland).

[2] = system: PC-3 cancer cells; assay: MTT antiproliferative assay, PC-3; format: cell-based, human; conditions: MTT assay after 48 h
Excerpt: as §1, §2

[3] = system: HepG2 cancer cells; assay: MTT antiproliferative assay, HepG2; format: cell-based, human; conditions: read-out: IC50 HepG2
Excerpt: as §1, §2

[4] = system: NRK-52E cells; assay: MTT cytotoxicity assay, normal NRK-52E cells; format: cell-based; conditions: MTT assay after 48 h, normal rat kidney cell line
Excerpt: as §1, §2

[5] = system: A549 cells; assay: Scratch test (cell migration); format: cell-based, human
Experimental: According to the previous methods, A549 cells of the logarithmic growth stage were cultured in 6-well plates with two lines on the back, with each well containing a density of 1 × 10^6 cells/mL. After the cells adhered to the wall, three uniform thin lines were drawn in each well by a sterile pipette tip. Afterward, the medium containing 1% fetal bovine serum (FBS) and various concentrations of compounds were added in wells. After the different time of incubation, the cells were performed by an inverted fluorescence microscope. Then the scratch healing rate was calculated: Migration distance (n h) = edge distance (0 h) − edge distance (12 h or 24 h).

[6] = system: cellular microtubule network of HepG2 cells; assay: Immunofluorescence staining of tubulin; format: cell-based, human; conditions: 3 and 6 μM, 24 h
Experimental: According to the previous methods, compound solutions of various concentrations were added to a 6-well plate in which HepG2 cells had been seeded for 12 h. After incubation for 24 h and washed with phosphate-buffered saline (PBS, 10 mM, pH 7.3), each well was treated with 4% formaldehyde solution for 15 min and washed with 0.1% Triton X-100 of phosphate-buffered saline (PBS, 10 mM, pH 7.3). After that, the fixed cells were incubated with diluted tubulin-tracker red for 40 min in a dark environment, followed by washing three times by 0.1% Triton X-100 of phosphate-buffered saline (PBS, 10 mM, pH 7.3). Finally, each well was added DAPI (2 μg/mL). Finally, the results were observed using a Nikon ECLIPSE Ti-S fluorescent microscope (Nikon Co, Tokyo, Japan).

[7] = target: T1, tubulin (Sus scrofa, UniProt P02554); assay: Tubulin polymerization assay in vitro; format: biochemical; conditions: 10 μM and 20 μM; 4 mg/mL tubulin, 37 °C, 340 nm
T1 construct: purchased Cytoskeleton, Inc. BK004P
T1 sequence (P02554 whole entry): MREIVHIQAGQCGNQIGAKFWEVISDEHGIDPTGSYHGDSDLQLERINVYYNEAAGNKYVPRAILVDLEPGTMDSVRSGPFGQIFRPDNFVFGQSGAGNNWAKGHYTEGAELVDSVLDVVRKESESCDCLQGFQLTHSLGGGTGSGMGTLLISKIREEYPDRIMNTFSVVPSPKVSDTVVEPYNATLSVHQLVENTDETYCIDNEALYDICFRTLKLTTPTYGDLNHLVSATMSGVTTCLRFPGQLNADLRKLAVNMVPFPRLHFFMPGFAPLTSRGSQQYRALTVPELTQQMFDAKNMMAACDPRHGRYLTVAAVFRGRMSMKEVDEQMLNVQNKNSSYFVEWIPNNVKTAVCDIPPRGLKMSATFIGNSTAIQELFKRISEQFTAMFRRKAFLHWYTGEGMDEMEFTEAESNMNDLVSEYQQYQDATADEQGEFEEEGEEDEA
T1 sequence (P02550 whole entry partner): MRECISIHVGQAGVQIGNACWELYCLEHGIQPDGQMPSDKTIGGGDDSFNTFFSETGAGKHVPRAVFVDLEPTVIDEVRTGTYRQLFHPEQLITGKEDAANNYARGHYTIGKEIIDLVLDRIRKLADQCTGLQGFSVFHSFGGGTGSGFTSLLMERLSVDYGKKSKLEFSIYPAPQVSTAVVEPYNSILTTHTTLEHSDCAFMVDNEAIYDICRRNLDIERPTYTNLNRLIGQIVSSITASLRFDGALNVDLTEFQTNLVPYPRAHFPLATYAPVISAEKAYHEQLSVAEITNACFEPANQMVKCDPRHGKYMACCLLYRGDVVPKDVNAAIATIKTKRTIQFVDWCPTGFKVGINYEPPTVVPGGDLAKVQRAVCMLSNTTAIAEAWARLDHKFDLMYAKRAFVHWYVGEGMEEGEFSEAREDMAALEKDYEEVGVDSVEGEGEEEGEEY
Experimental: The tubulin polymerization assay in vitro was determined by HTS-Tubulin Polymerization Assay Kit (#BK004P, Cytoskeleton, Inc., Denver, CO, USA) as described in previous articles. The plate was pre-warmed at 37 °C, and the reaction assay contained 100 μL 4 mg/mL tubulin in G-PEM buffer. Then, 10 μL (10×) compounds solution or 100 μM paclitaxel solution as a control. Finally, the polymerization was carried out at 37 °C and recorded at 340 nm each 10 s for 70 min using Cytation™ 5 multi-mode readers.

[8] = system: tubulin; assay: Tubulin polymerization via TEM; format: biochemical; conditions: 20 μM + 4 mg/mL tubulin
Experimental: Briefly, according to the protocol of tubulin polymerization assay, the 100 μL centrifuge tubes were pre-warmed at 37 °C, and the reaction assay contained 20 μL 4 mg/mL tubulin in G-PEM buffer. Then, 2 μL (10×) compounds solution was added. Finally, the assay was carried out at 37 °C for 30 min. The formed microtubules were transferred to Formvar-caron-coated copper grids, negatively stained with 1% phosphotungstic acid, and visualized under a transmission electron microscope.

[9] = system: HepG2 cells; assay: Cell cycle analysis by flow cytometry; format: cell-based, human; conditions: HepG2, 24 μM, 24 h (0 μM: 17.68%)
Experimental: The cells in the 6-well plates were carefully collected 24 h after dosing. After the cells were washed with pre-cooled PBS, the pre-cooled 70% ethanol solution was added for fixation (4 °C overnight). After that, the cells were washed with PBS, and incubated with 1 mg/mL RNase A for 30 min at 37 °C). Then, […] PI staining solution was added and incubated in the dark for 30 min at 4 °C. Finally, the cell arrest was analyzed by the FACSCalibur™ flow cytometer (Becton Dickinson Immunocytometry Systems, San Jose, CA, USA) as previously described.

[10] = system: HepG2 cells; assay: Hoechst apoptosis experiment; format: cell-based, human; conditions: HepG2, 6 μM, 24 h
Experimental: In this assay, HepG2 cells were seeded in 6-well plates, after 24 h of incubation, different compounds were added at various concentrations, and cells were incubated again for 24 h. Afterward, the medium was removed and cells were washed twice with phosphate-buffered saline (PBS, 10 mM, pH 7.3), and fixed with 4% paraformaldehyde for 15 min at room temperature, then stained with […] Hoechst 33258 in PBS for 20 min at 37 °C in the dark. After incubation, the cells were incubated with an anti-fluorescent attenuator and imaged with an inverted fluorescence microscope.

[11] = system: A549, PC-3 and HepG2 cancer cell lines; assay: MTT antiproliferative assay, three cancer lines together; format: cell-based; conditions: Homo sapiens; range over A549, PC-3 and HepG2; read-out: IC50 values against three cancer lines
Excerpt: as §1, with “laboratory. Cells were maintained in RPMI 1640 or DMEM complete medium.” for “laboratory.”
as §2, with “Switzerland). Curcumin, gefitinib, and colchicine were used as positive controls.” for “Switzerland).”

[12] = A549, 6 μM, 12 h (control 12.5%)
[13] = A549, 6 μM, 24 h (control 24.4%)
[14] = Homo sapiens, HepG2, 48 h, MTT assay after 48 h

Row | Compound | IC50 ([1]; Homo sapiens, A549) | IC50 ([2]; Homo sapiens) | IC50 [3, 14] | also measured
1 | COc1cc(/C=C/C(=O)CC(=O)/C=C/c2ccc(O)c(OC)c2)ccc1O [Curcumin, reference compound] | 69.6 ± 1.18 µM | 73.4 ± 4.99 µM |  | IC50 ([3]; Homo sapiens, HepG2, 48 h): 40.2 ± 1.74 µM; IC50 [4]: > 300 µM
2 | COc1cc2ncnc(Nc3ccc(F)c(Cl)c3)c2cc1OCCCN1CCOCC1 [Gefitinib, reference compound] |  |  |  | Cell relative migration (migration rate) [5, 12]: 3.98%; Cell relative migration (migration rate) [5, 13]: 7.97%
3 | O=C(/C=C/c1ccccc1)NNC(=O)/C=C/c1ccccc1 [I1] | 26.7 ± 0.43 µM | 5.95 ± 1.52 µM | 8.17 ± 0.46 µM | 
4 | COc1cccc(/C=C/C(=O)NNC(=O)/C=C/c2ccccc2)c1 [I6] | 41 ± 4.47 µM | 160 ± 10.9 µM | 46.8 ± 0.14 µM | 
5 | O=C(/C=C/c1ccccc1)NNC(=O)/C=C/c1ccc(F)cc1 [I9] | 24.9 ± 1.54 µM | 4.68 ± 0.69 µM | 7.63 µM | IC50 ([3]; MTT assay after 48 h): 4.75 ± 0.36 µM
6 | Cc1ccc(/C=C/C(=O)NNC(=O)/C=C/c2ccccc2)cc1 [I10] | 19.5 ± 4.95 µM | 70.3 ± 9.88 µM | 23.6 ± 2.67 µM | 
7 | CC(C)c1ccc(/C=C/C(=O)NNC(=O)/C=C/c2ccccc2)cc1 [I11] | 43 ± 7.3 µM | 19.2 ± 6.57 µM | 18.6 ± 3.9 µM | 
8 | COc1cc(/C=C/C(=O)NNC(=O)/C=C/c2ccccc2)ccc1O [I15] | 35.8 ± 0.59 µM | > 300 µM | 31.1 ± 7.66 µM | 
9 | O=C(/C=C/c1ccccc1)NNC(=O)/C=C/C1CC1 [I16] | 16.4 ± 0.98 µM | 80.5 ± 5.43 µM | 78.5 ± 1.39 µM | 
10 | Cc1ncsc1/C=C/C(=O)NNC(=O)/C=C/c1ccccc1 [I19] | 26.6 ± 5.08 µM | 96.4 ± 8.36 µM | 89.3 ± 8.89 µM | 
11 | O=C(/C=C/c1ccccc1)NNC(=O)/C=C/C1CCCCC1 [I20] | 16.3 ± 3.25 µM | 21.8 ± 3.15 µM | > 300 µM | 
12 | O=C(/C=C/c1ccccc1)NNC(=O)/C=C/c1cccnc1 [I22] | 60.2 ± 2.37 µM | 159 ± 5.88 µM | 43.3 ± 1.1 µM | 
13 | (E)-3-(3-methoxyphenyl)-N'-((E)-3-(3-methoxyphenyl)acryloyl)acrylohydrazide [I25] |  |  |  | IC50 [1]: 144 ± 8.95 µM; IC50 [2]: 142 ± 6.79 µM; IC50 ([3]; MTT assay after 48 h): 80 ± 4.04 µM

The next lines start with results.

Row | IC50 ([1]; Homo sapiens, A549) | IC50 ([2]; Homo sapiens) | IC50 [3, 14] | Compound | also measured
14 | 7.55 ± 1.22 µM | 8.08 ± 2.24 µM | 9.33 ± 0.95 µM | O=C(/C=C/c1ccccc1)NNC(=O)/C=C/c1ccccc1[N+](=O)[O-] [I2] | 
15 | 6.48 ± 0.41 µM | 7.38 ± 0.24 µM | 9.53 ± 1.74 µM | O=C(/C=C/c1ccccc1)NNC(=O)/C=C/c1ccccc1Cl [I3] | 
16 | 6.05 ± 0.08 µM | 15.8 ± 1.67 µM | 6.32 ± 1 µM | O=C(/C=C/c1ccccc1)NNC(=O)/C=C/c1cccc([N+](=O)[O-])c1 [I4] | 
17 | 5.09 ± 0.08 µM | 6.68 ± 0.96 µM | 8.69 ± 1.04 µM | O=C(/C=C/c1ccccc1)NNC(=O)/C=C/c1cccc(O)c1 [I5] | IC50 [4]: 50 ± 4.4 µM
18 | 4.17 ± 0.93 µM | 8.79 ± 3.19 µM | 7.63 ± 1.75 µM | O=C(/C=C/c1ccccc1)NNC(=O)/C=C/c1ccc([N+](=O)[O-])cc1 [I7] | IC50 [4]: 21 ± 1.75 µM
19 | 9.57 ± 1.92 µM | 63.2 ± 3.86 µM | 6.98 ± 1.3 µM | O=C(/C=C/c1ccccc1)NNC(=O)/C=C/c1ccc(Cl)cc1 [I8] | 
20 | 10.9 ± 0.25 µM | 39.4 ± 3.54 µM | 21.1 ± 4.07 µM | COc1ccc(/C=C/C(=O)NNC(=O)/C=C/c2ccccc2)cc1 [I12] | 
21 | 15 ± 4.9 µM | 22.5 ± 2.64 µM | 15.4 ± 0.93 µM | CCOc1ccc(/C=C/C(=O)NNC(=O)/C=C/c2ccccc2)cc1 [I13] | 
22 | 12.8 ± 0.6 µM | 7.81 ± 1.69 µM | 3.42 ± 0.49 µM | CN(C)c1ccc(/C=C/C(=O)NNC(=O)/C=C/c2ccccc2)cc1 [I14] | IC50 [4]: 7 ± 0.3 µM
23 | 13 ± 2.4 µM | 36 ± 0.7 µM | 34.5 ± 0.28 µM | O=C(/C=C/c1ccccc1)NNC(=O)/C=C/c1ccco1 [I17] | 
24 | 13.8 ± 0.29 µM | 15.9 ± 1.14 µM | 21.1 ± 3.76 µM | O=C(/C=C/c1ccccc1)NNC(=O)/C=C/c1cccs1 [I18] | 
25 | 8.27 ± 0.8 µM | 21.6 ± 0.89 µM | 20.4 ± 0.86 µM | O=C(/C=C/c1ccccc1)NNC(=O)/C=C/C1CC=CCC1 (stereo not drawn) [I21] | 
26 | 5.99 ± 1.07 µM | 4.17 ± 0.57 µM | 3.36 ± 0.8 µM | COc1cccc(/C=C/C(=O)NNC(=O)/C=C/c2ccc([N+](=O)[O-])cc2)c1 [I23] | IC50 [4]: 6.99 ± 1.6 µM; Effect on cellular microtubule network (immunofluorescence) [6]: agminated microtubule network and wrinkled nucleus were observed; Effect on tubulin polymerization [7]: could stabilize tubulin assembly and promote protofilament assembly in a dosage-dependent manner; Effect on tubulin polymerization seen by TEM [8]: more large nonlinear disorganized aggregations; Percentage of cell, G2/M [9]: 20.56%; Cell relative migration (migration rate) ([5]; A549, 3 μM, 12 h (control 12.5%)): 8.93%; Cell relative migration (migration rate) ([5]; A549, 3 μM, 24 h (control 24.4%)): 18.7%; Cell relative migration (migration rate) [5, 12]: 6.07%; Cell relative migration (migration rate) [5, 13]: 13.2%; Apoptosis effect (Hoechst 33258 staining) [10]: a strong apoptotic phenomenon happened; IC50 [11]: 3.36 to 5.99 µM
27 | 5.17 ± 0.41 µM | 15.7 ± 2.98 µM | 8.08 ± 2.25 µM | COc1ccc(/C=C/C(=O)NNC(=O)/C=C/c2ccc([N+](=O)[O-])cc2)cc1 [I24, (E)-3-(4-methoxyphenyl)-N'-((E)-3-(4-nitrophenyl)acryloyl)acrylohydrazide] | 
28 | 11 ± 1.72 µM | 21 ± 2.32 µM | 14.5 ± 2.56 µM | COc1cccc(/C=C/C(=O)NNC(=O)/C=C/c2cccc(OC)c2)c1 [I26] | 
